# Test results published in patent publication US20090275583A1, “ANTIVIRAL COMPOUNDS AND USE THEREOF” (Myriad Genetics, Incorporated, priority 2006, published 2009).
# Tested on: HIV-1NL4-3
# Test: P4-MAGI assay
# Assay type: cell-based
# Details: Human immunodeficiency virus 1, 24 h, P4 cells, 24 hour incubation, β-galactosidase expression; read-out: P4-MAGI IC50
# Text: P4 cells were used to test the effects of compounds on virus fusion activity. P4 cells are HIV-1 infectable CD4^+ HeLa cells that bear the bacterial lacZ gene under the control of a minimal HIV-1 LTR. Charneau, et. al., J. Mol. Biol. 241:651-662 (1994). When these cells are infected with HIV-1, β-galactosidase is expressed due to Tat activation of the viral LTR. In this assay, P4 cells were infected with the laboratory adapted strain HIV-1NL4-3 at a multiplicity of infection of 1 in the presence of DEAE-Dextran. Immediately after addition of virus to the cells, increasing concentrations of compound were added to the cells. […] The effect on cell viability (TC50, concentration of compound that inhibits growth by 50%) was determined in mock-infected cells with the WST-1 Cell Proliferation Reagent (Roche Diagnostics).
row,SMILES,IC50 [nM]
1,"CC(O)(CO)[C@@H]1CC[C@]2(C(=O)NCc3cccc(C(=O)NCCCCC(=O)O)c3)CC[C@]3(C)C(CCC4[C@@]5(C)CC[C@H](O)C(C)(C)C5CC[C@]43C)C12 (single isomer, unassigned) [Example 139]",1500
2,C=C(C)[C@@H]1CC[C@]2(C(=O)NCc3cccc(C(=O)NCc4ccccc4C(=O)O)c3)CC[C@]3(C)C(CCC4[C@@]5(C)CC[C@H](O)C(C)(C)C5CC[C@]43C)C12 (stereo partly shown) [Example 8],875
3,C=C(C)[C@@H]1CC[C@]2(C(=O)NCc3cccc(C(=O)NCCc4cccc(C(=O)O)c4)c3)CC[C@]3(C)C(CCC4[C@@]5(C)CC[C@H](O)C(C)(C)C5CC[C@]43C)C12 (stereo partly shown) [Example 11],55
4,C=C(C)[C@@H]1CC[C@]2(C(=O)NCc3cccc(C(=O)Nc4ccc(O)c(C(=O)O)c4)c3)CC[C@]3(C)C(CCC4[C@@]5(C)CC[C@H](O)C(C)(C)C5CC[C@]43C)C12 (stereo partly shown) [Example 12],7200
5,C=C(C)[C@@H]1CC[C@]2(C(=O)NCc3cccc(C(=O)Nc4ccc(C(=O)O)cc4)c3)CC[C@]3(C)C(CCC4[C@@]5(C)CC[C@H](O)C(C)(C)C5CC[C@]43C)C12 (stereo partly shown) [Example 14],1800
6,C=C(C)[C@@H]1CC[C@]2(C(=O)NCc3cccc(C(=O)Nc4cccc(C(=O)O)c4)c3)CC[C@]3(C)C(CCC4[C@@]5(C)CC[C@H](O)C(C)(C)C5CC[C@]43C)C12 (stereo partly shown) [Example 15],320
7,C=C(C)[C@@H]1CC[C@]2(C(=O)NCc3cccc(C(=O)NC4(Cc5ccc(C(=O)O)cc5)CC4)c3)CC[C@]3(C)C(CCC4[C@@]5(C)CC[C@H](O)C(C)(C)C5CC[C@]43C)C12 (stereo partly shown) [Example 28],1200
8,C=C(C)[C@@H]1CC[C@]2(C(=O)NCc3cccc(C(=O)NCc4cccc(Br)c4)c3)CC[C@]3(C)C(CCC4[C@@]5(C)CC[C@H](O)C(C)(C)C5CC[C@]43C)C12 (stereo partly shown) [Example 30],410
9,C=C(C)[C@@H]1CC[C@]2(C(=O)NCc3cccc(C(=O)NCc4cc(C(=O)O)ccn4)c3)CC[C@]3(C)C(CCC4[C@@]5(C)CC[C@H](O)C(C)(C)C5CC[C@]43C)C12 (stereo partly shown) [Example 31],573
10,C=C(C)[C@@H]1CC[C@]2(C(=O)NCc3cccc(C(=O)NCCc4cc(OC)cc(OC)c4)c3)CC[C@]3(C)C(CCC4[C@@]5(C)CC[C@H](O)C(C)(C)C5CC[C@]43C)C12 (stereo partly shown) [Example 44],52
11,C=C(C)[C@@H]1CC[C@]2(C(=O)NCc3cccc(C(=O)NCc4ccc(OC)cc4OC)c3)CC[C@]3(C)C(CCC4[C@@]5(C)CC[C@H](O)C(C)(C)C5CC[C@]43C)C12 (stereo partly shown) [Example 46],59
12,C=C(C)[C@@H]1CC[C@]2(C(=O)NCCc3ccccc3C(=O)NCCCCC(=O)O)CC[C@]3(C)C(CCC4[C@@]5(C)CC[C@H](O)C(C)(C)C5CC[C@]43C)C12 (stereo partly shown) [Example 54],3400
13,C=C(C)[C@@H]1CC[C@]2(C(=O)NCCc3ccccc3C(=O)NCCCCCCC(=O)O)CC[C@]3(C)C(CCC4[C@@]5(C)CC[C@H](O)C(C)(C)C5CC[C@]43C)C12 (stereo partly shown) [Example 55],4700
14,C=C(C)[C@@H]1CC[C@]2(C(=O)NCCc3cccc(C(=O)NCC(=O)O)c3)CC[C@]3(C)C(CCC4[C@@]5(C)CC[C@H](O)C(C)(C)C5CC[C@]43C)C12 (stereo partly shown) [Example 64],220
15,C=C(C)[C@@H]1CC[C@]2(C(=O)NCCc3cccc(C(=O)NCC(=O)NC)c3)CC[C@]3(C)C(CCC4[C@@]5(C)CC[C@H](O)C(C)(C)C5CC[C@]43C)C12 (stereo partly shown) [Example 71],2700
16,C=C(C)[C@@H]1CC[C@]2(C(=O)NCCc3cccc(C(=O)N[C@@H](CCC(=O)OC)C(N)=O)c3)CC[C@]3(C)C(CCC4[C@@]5(C)CC[C@H](O)C(C)(C)C5CC[C@]43C)C12 (stereo partly shown) [Example 77],106
17,C=C(C)[C@@H]1CC[C@]2(C(=O)NCc3cccc(CNC(=O)c4ccc(C(=O)O)c(C(=O)O)c4)c3)CC[C@]3(C)C(CCC4[C@@]5(C)CC[C@H](O)C(C)(C)C5CC[C@]43C)C12 (stereo partly shown) [Example 78],7000
18,C=C(C)[C@@H]1CC[C@]2(C(=O)NCc3cccc(CNC(=O)c4cc(C(=O)O)ccc4C(=O)O)c3)CC[C@]3(C)C(CCC4[C@@]5(C)CC[C@H](O)C(C)(C)C5CC[C@]43C)C12 (stereo partly shown) [Example 79],412
19,C=C(C)[C@@H]1CC[C@]2(C(=O)NCc3cccc(C(=O)NCc4cccc(C(=O)O)c4C)c3C)CC[C@]3(C)C(CCC4[C@@]5(C)CC[C@H](O)C(C)(C)C5CC[C@]43C)C12 (stereo partly shown) [Example 81],6200
20,C=C(C)[C@@H]1CC[C@]2(C(=O)NCC(C)c3cccc(C(=O)NCc4cccc(C(=O)O)c4)c3)CC[C@]3(C)C(CCC4[C@@]5(C)CC[C@H](O)C(C)(C)C5CC[C@]43C)C12 (stereo partly shown) [Example 82],150
21,C=C(C)[C@@H]1CC[C@]2(C(=O)NCC(C)c3cccc(C(=O)NCc4cccc(C(=O)O)c4C)c3)CC[C@]3(C)C(CCC4[C@@]5(C)CC[C@H](O)C(C)(C)C5CC[C@]43C)C12 (stereo partly shown) [Example 83],270

row,SMILES,IC50 [nM]
1,C=C(C)[C@@H]1CC[C@]2(C(=O)Nc3cccc(C(=O)NCCc4cccc(C(=O)O)c4)c3)CC[C@]3(C)C(CCC4[C@@]5(C)CC[C@H](O)C(C)(C)C5CC[C@]43C)C12 (stereo partly shown) [Example 85],10000
2,C=C(C)[C@@H]1CC[C@]2(C(=O)NCc3cccc(C(=O)O)n3)CC[C@]3(C)C(CCC4[C@@]5(C)CC[C@H](O)C(C)(C)C5CC[C@]43C)C12 (stereo partly shown) [Example 86],3600
3,C=C(C)[C@@H]1CC[C@]2(C(=O)NCc3ccc(C(=O)OC)o3)CC[C@]3(C)C(CCC4[C@@]5(C)CC[C@H](O)C(C)(C)C5CC[C@]43C)C12 (stereo partly shown) [Example 87],1400
4,C=C(C)[C@@H]1CC[C@]2(C(=O)NCc3ccc(C(=O)O)o3)CC[C@]3(C)C(CCC4[C@@]5(C)CC[C@H](O)C(C)(C)C5CC[C@]43C)C12 (stereo partly shown) [Example 88],6900
5,C=C(C)[C@@H]1CC[C@]2(C(=O)NCc3ccc(C(=O)NCc4ccc(C(=O)OC)o4)o3)CC[C@]3(C)C(CCC4[C@@]5(C)CC[C@H](O)C(C)(C)C5CC[C@]43C)C12 (stereo partly shown) [Example 89],2300
6,C=C(C)[C@@H]1CC[C@]2(C(=O)NCc3ccc(C(=O)NCc4ccc(C(=O)O)o4)o3)CC[C@]3(C)C(CCC4[C@@]5(C)CC[C@H](O)C(C)(C)C5CC[C@]43C)C12 (stereo partly shown) [Example 90],6500
7,C=C(C)[C@@H]1CC[C@]2(C(=O)NCc3cccc(C(=O)NCc4cccc(C(=O)O)n4)n3)CC[C@]3(C)C(CCC4[C@@]5(C)CC[C@H](O)C(C)(C)C5CC[C@]43C)C12 (stereo partly shown) [Example 91],3900
8,C=C(C)[C@@H]1CC[C@]2(C(=O)NCc3ccc(F)c(C(=O)NCCc4ccc(C(=O)OC)cc4)c3)CC[C@]3(C)C(CCC4[C@@]5(C)CC[C@H](O)C(C)(C)C5CC[C@]43C)C12 (stereo partly shown) [Example 104],350
9,C=C(C)[C@@H]1CC[C@]2(C(=O)NCc3ccc(F)c(C(=O)NCCc4cccc(C(=O)OC)c4)c3)CC[C@]3(C)C(CCC4[C@@]5(C)CC[C@H](O)C(C)(C)C5CC[C@]43C)C12 (stereo partly shown) [Example 106],1300
10,C=C(C)[C@@H]1CC[C@]2(C(=O)NCc3ccc(F)c(C(=O)NCc4cccc(C(=O)OC)c4)c3)CC[C@]3(C)C(CCC4[C@@]5(C)CC[C@H](O)C(C)(C)C5CC[C@]43C)C12 (stereo partly shown) [Example 110],856
11,C=C(C)[C@@H]1CC[C@]2(C(=O)NCCc3ccc(OCCCCC(=O)O)cc3)CC[C@]3(C)C(CCC4[C@@]5(C)CC[C@H](O)C(C)(C)C5CC[C@]43C)C12 (stereo partly shown) [Example 112],317
12,C=C(C)[C@@H]1CC[C@]2(C(=O)NCCc3cccc(OCCCCC(=O)O)c3)CC[C@]3(C)C(CCC4[C@@]5(C)CC[C@H](O)C(C)(C)C5CC[C@]43C)C12 (stereo partly shown) [Example 113],721
13,C=C(C)[C@@H]1CC[C@]2(C(=O)N[C@@H](Cc3ccc(OCCCCC(=O)O)cc3)C(=O)O)CC[C@]3(C)C(CCC4[C@@]5(C)CC[C@H](O)C(C)(C)C5CC[C@]43C)C12 (stereo partly shown) [Example 115],10000
14,C=C(C)[C@@H]1CC[C@]2(C(=O)N[C@@H](Cc3ccc(OCCN4CCOC4=O)cc3)C(=O)O)CC[C@]3(C)C(CCC4[C@@]5(C)CC[C@H](O)C(C)(C)C5CC[C@]43C)C12 (stereo partly shown) [Example 116],177
15,C=C(C)[C@@H]1CC[C@]2(C(=O)NCc3cccc(N4CCN(Cc5cccc(C(=O)O)c5)CC4)c3)CC[C@]3(C)C(CCC4[C@@]5(C)CC[C@H](O)C(C)(C)C5CC[C@]43C)C12 (stereo partly shown) [Example 118],458
16,C=C(C)[C@@H]1CC[C@]2(C(=O)NCc3cccc(C(=O)NCc4ccc(OCCC(=O)O)c(C(=O)O)c4)c3)CC[C@]3(C)C(CCC4[C@@]5(C)CC[C@H](O)C(C)(C)C5CC[C@]43C)C12 (stereo partly shown) [Example 119],1100
17,C=C(C)[C@@H]1CC[C@]2(C(=O)NCc3cccc(C(=O)NCc4ccc(OCC(=O)O)c(C(=O)O)c4)c3)CC[C@]3(C)C(CCC4[C@@]5(C)CC[C@H](O)C(C)(C)C5CC[C@]43C)C12 (stereo partly shown) [Example 120],620
18,C=C(C)[C@@H]1CC[C@]2(C(=O)NCc3cccc(C(=O)NCc4ccc(OCCCN(C)CCN(C)C)c(C(=O)OC)c4)c3)CC[C@]3(C)C(CCC4[C@@]5(C)CC[C@H](O)C(C)(C)C5CC[C@]43C)C12 (stereo partly shown) [Example 122],265
19,C=C(C)[C@@H]1CC[C@]2(C(=O)NCc3cccc(-c4nc5cc(C(=O)O)ccc5[nH]4)c3)CC[C@]3(C)C(CCC4[C@@]5(C)CC[C@H](O)C(C)(C)C5CC[C@]43C)C12 (stereo partly shown) [Example 126],66
20,C=C(C)[C@@H]1CC[C@]2(C(=O)NCc3cccc(-c4nc(-c5cccc(C(=O)O)c5)no4)c3)CC[C@]3(C)C(CCC4[C@@]5(C)CC[C@H](O)C(C)(C)C5CC[C@]43C)C12 (stereo partly shown) [Example 127],768

# Same assay, conditions: Human immunodeficiency virus 1, text statement, less than about 100 nm; read-out: P4-MAGI assay IC50
row,SMILES,IC50 [nM]
1,C=C(C)[C@@H]1CC[C@]2(C(=O)NCc3cccc(C(=O)NCCc4cccc(C(=O)O)c4)c3)CC[C@]3(C)C(CCC4[C@@]5(C)CC[C@H](O)C(C)(C)C5CC[C@]43C)C12 (stereo partly shown) [Example 11],< 100
2,C=C(C)[C@@H]1CC[C@]2(C(=O)NCc3cccc(C(=O)NCCc4cc(OC)cc(OC)c4)c3)CC[C@]3(C)C(CCC4[C@@]5(C)CC[C@H](O)C(C)(C)C5CC[C@]43C)C12 (stereo partly shown) [Example 44],< 100
3,C=C(C)[C@@H]1CC[C@]2(C(=O)NCc3cccc(C(=O)NCc4ccc(OC)cc4OC)c3)CC[C@]3(C)C(CCC4[C@@]5(C)CC[C@H](O)C(C)(C)C5CC[C@]43C)C12 (stereo partly shown) [Example 46],< 100
4,C=C(C)[C@@H]1CC[C@]2(C(=O)NCc3cccc(-c4nc5cc(C(=O)O)ccc5[nH]4)c3)CC[C@]3(C)C(CCC4[C@@]5(C)CC[C@H](O)C(C)(C)C5CC[C@]43C)C12 (stereo partly shown) [Example 126],< 100

# Same assay, conditions: P4 cells, 24 hour incubation, β-galactosidase expression; read-out: P4-MAGI IC50
row,SMILES,IC50 [nM]
1,"CC(O)(CO)[C@@H]1CC[C@]2(C(=O)NCc3cccc(C(=O)NCCCCC(=O)O)c3)CC[C@]3(C)C(CCC4[C@@]5(C)CC[C@H](O)C(C)(C)C5CC[C@]43C)C12 (single isomer, unassigned) [Example 140]",1600
